# Laboratory results: patent US9359361B2, “Immune system modulators” (JANUS BIOTHERAPEUTICS, INC., priority 2011, dated 2016)
# Target: human TLR9 (hTLR9) (Homo sapiens (Human), UniProt Q9NR96)
# Experiment: TLR9 antagonist assay in HEK-Blue-hTLR9 cells (NF-kB/AP-1 SEAP reporter)
# Assay type: cell-based
# Settings: hTLR9 agonist (such as ODN 2006, 1 uM), SEAP readout at 620 nm, read-out: hTLR9 antagonism IC50
# Excerpt: TLR9 Antagonist Assay HEK-Blue™-hTLR9 cells were obtained from InvivoGen Inc. and used to determine test compound antagonism of human TLR9 (hTLR9) driven responses. HEK-Blue™-hTLR9 cells are designed for studying the stimulation of human TLR9 by monitoring the activation of NF-kB. As described by the manufacturer, “HEK-Blue™-hTLR9 cells were obtained by co-transfection of the hTLR9 gene and an optimized secreted embryonic alkaline phosphatase (SEAP) reporter gene into HEK293 cells. The SEAP reporter gene is placed under the control of the IFN-b minimal promoter fused to five NF-kB and AP-1 binding sites. Stimulation with a TLR9 ligand activates NF-kB and AP-1 which induces the production of SEAP. Levels of SEAP can be easily determined with QUANTI-Blue™ a detection medium that turns purple/blue in the presence of alkaline phosphatase”. TLR9 Antagonism Assay […] Day 2 […] Day 3 […] Calculation of IC50 The concentration dependent inhibition of hTLR9 dependent SEAP production was expressed as the concentration of compound which produced half the maximal level of SEAP induced by the hTLR agonist alone.
# Sequence of human TLR9 (hTLR9) (Q9NR96 26-1032): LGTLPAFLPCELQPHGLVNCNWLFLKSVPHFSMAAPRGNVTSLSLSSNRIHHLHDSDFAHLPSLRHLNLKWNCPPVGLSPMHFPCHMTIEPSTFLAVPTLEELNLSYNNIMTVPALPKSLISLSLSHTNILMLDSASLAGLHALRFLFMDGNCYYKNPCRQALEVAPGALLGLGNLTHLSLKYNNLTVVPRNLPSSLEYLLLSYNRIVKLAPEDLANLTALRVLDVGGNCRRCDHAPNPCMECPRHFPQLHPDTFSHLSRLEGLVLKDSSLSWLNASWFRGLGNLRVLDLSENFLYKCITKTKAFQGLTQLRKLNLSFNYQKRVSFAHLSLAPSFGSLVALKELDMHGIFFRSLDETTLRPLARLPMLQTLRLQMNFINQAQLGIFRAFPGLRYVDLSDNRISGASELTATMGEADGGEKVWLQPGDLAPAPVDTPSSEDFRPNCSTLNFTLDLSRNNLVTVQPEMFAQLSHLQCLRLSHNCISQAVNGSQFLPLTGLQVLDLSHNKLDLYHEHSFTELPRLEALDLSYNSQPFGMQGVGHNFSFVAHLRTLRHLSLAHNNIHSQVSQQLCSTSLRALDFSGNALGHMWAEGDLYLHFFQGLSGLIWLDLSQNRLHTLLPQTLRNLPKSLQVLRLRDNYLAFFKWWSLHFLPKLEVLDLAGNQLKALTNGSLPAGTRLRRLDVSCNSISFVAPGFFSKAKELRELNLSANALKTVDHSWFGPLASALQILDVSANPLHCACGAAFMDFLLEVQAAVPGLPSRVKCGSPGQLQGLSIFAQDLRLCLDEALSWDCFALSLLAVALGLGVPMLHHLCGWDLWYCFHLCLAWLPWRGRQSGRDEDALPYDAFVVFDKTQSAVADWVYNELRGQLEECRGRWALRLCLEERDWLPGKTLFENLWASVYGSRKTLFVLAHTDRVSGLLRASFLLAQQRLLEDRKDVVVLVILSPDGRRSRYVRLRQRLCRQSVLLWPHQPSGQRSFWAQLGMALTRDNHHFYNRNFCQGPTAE
compound,measurement,value
c1ccc(-c2nc(NCCN3CCOCC3)c3nc(NCCN4CCOCC4)c(N4CCCC4)nc3n2)cc1 [Example 66],IC50,181 nM
